No end group written: not given here.
Experiments:
[1] = system: lytic activity of D222D clone 2 against peptide-pulsed LCL target cells; assay: Cytotoxic mechanism: ZnT8-specific lysis of LCL targets by D222D clone 2 in the presence of inhibitors; type: cell-based, human; settings: 4 h co-culture; concanamycin A 100 nM, brefeldin A 5 μg/ml, anti-FasL mAb 5 μg/ml
Method: FIG. 6. […]; left to right). Live FarRed^+ target cells were counted at the end of the culture and normalized to a fixed amount of beads added to each well. Percent lysis is noted for each dot plot, calculated as 100×(live targets cultured alone)−(live targets in the presence of T cells)/(live targets cultured alone). B. Lysis of LCL targets pulsed with the indicated peptides and cultured with D222D clones at different E/T ratios. Percent lysis was calculated as above and depicted as mean±SEM of two independent experiments with clone 2 and 3, with data depicted in panel (A) used for clone 3. Similar profiles were obtained for clone 1 (not shown). C. ZnT8-specific lysis of peptide-pulsed LCL target cells co-cultured for 4 h with D222D clone 2 without inhibitors (−) or in the presence of concanamycin A (CMA, 100 nM), brefeldin A (BFA, 5 μg/ml), anti-FasL mAb (aFasL, clone NOK-1; 5 μg/ml) or IgG1 isotype control. *p<0.05 by Wilcoxon signed-rank test. Results are mean±SEM of triplicate measurements from one representative experiment out two performed.
LCL pulsed with 10 μM of the indicated peptide, K562-A2/ZnT8 or K562/A2 target cells were labeled with CellTrace FarRed (Life Technologies) and dispensed in 96-well flat-bottom plates at 10^5/well. Different numbers of CFSE-labeled T cells were added and co-cultured for 6-24 h, as indicated. […]

[2] = target: recombinant HLA-A2 molecules (Homo sapiens, UniProt P04439, D140Y/D185E/D98H/E176V/E277Q/G131W/G231S/I119V/I121R/I166T/I218V/N151K/N90K/P208A/P217A/Q86G/Q94H/R138H/R169H); assay: Affinity and stability measurements of recombinant HLA-A2 molecules complexed with peptide; type: binding; settings: recombinant HLA-A2 complexed with peptide; data not shown
[3] = target: recombinant HLA-A2 molecules (Homo sapiens, UniProt P04439, /I119V/I121R/I166T/I218V/N151K/N90K/P208A/P217A/Q86G/Q94H/R138H/R169H); assay: as above; type: binding

Molecule | inhibition of lytic activity [1] | also measured
C[C@H]1CCC/C=C/[C@@H]2C[C@H](O)C[C@H]2[C@H](O)/C=C/C(=O)O1 [brefeldin A] | not | –
C/C=C/[C@H]1O[C@@](O)([C@@H](C)[C@H](O)[C@H](C)[C@H]2OC(=O)/C(OC)=C/C(C)=C/[C@@H](C)[C@@H](O)[C@@H](CC)[C@@H](O)[C@H](C)C/C(C)=C/C=C/[C@@H]2OC)C[C@@H](O[C@H]2C[C@@H](O)[C@H](OC(N)=O)[C@@H](C)O2)[C@@H]1C [concanamycin A] | completely inhibited | –
AVAANIVLTV [ZnT8185-194] | – | Kd [2]: 207 nM
VAANIVLTV [ZnT8186-194] | – | Kd [3]: 15 nM

From patent publication US11078251B2, “T cell receptors (TCR) and uses thereof for the diagnosis and treatment of diabetes” (INSERM (INSTITUT NATIONAL DE LA SANTÉ ET DE LA RECHERCHE …, priority 2015, dated 2021)
